In brackets after ≈: the same amount, converted by molar mass. Read-outs that look alike come from different tables or passages of the source.
Legend:
[1] = test system: S-180 cells; format: cell-based, mouse; settings: 25 μM 2'-deoxycytidine added to 20 μM of the new compound
Method: (§1) Mouse L1210 and S-180 cells were maintained as suspension cultures in Fischer's medium supplemented with 10% horse serum at 37° C. in a humidified atmosphere of 5% CO2 -95% air. Under these conditions the generation time for L1210 and S-180 cells is approximately 12 and 18 hours, respectively. The test compound at the given concentration, was added to L1210 and S-180 cells (2×10^4 cells/mL) which were in their exponential phase of growth. The increase in cell number of the drug-free culture (control), as well as that of the cultures supplemented with the test compound, was determined after 24, 48 and 72 hours of growth.
(§2) At a 5 μM concentration of this compound the addition of 25 μM and 100 μM of 2'-deoxycytidine prevented the cytotoxicity of the novel compound against L1210 cells by 35% and 100% respectively.

[2] = test system: L1210 cells; format: cell-based, mouse
Method: as §1, §2

[3] = test system: cytotoxicity of the novel compound; format: cell-based; settings: in words
Method: as §2

[4] = Water solubility of the new compound; format: physicochemical; settings: at 23° C.
Method: The new compound has excellent water solubility (~0.5 g/mL at 23° C.) and readily forms non-toxic acid addition salts with a variety of pharmacologically acceptable organic and inorganic salt-formingreagents. Thus, acid addition salts formed by admixture of the organic free base with up to two equivalents of an acid, suitably in a neutral solvent, are formed with such acids as sulfuric, phosphoric, hydrochloric,hydrobromic, sulfamic, citric, lactic, malic, succinic, tartaric, acetic, benzoic, gluconic, ascorbic, and the like. For purposes of this invention, the free base is equivalent to the non-toxic acid addition salts. The acid addition salts are, in general, crystalline solids, very soluble in water, relatively soluble in methanol and ethanol but relatively insoluble in non-polar organic solvents such as diethyl ether, benzene, toluene, and the like.

[5] = test system: L1210 cells; test: Inhibition of replication of L1210 cells in vitro; format: cell-based; settings: Mus musculus, mean cell counts after 72 hours, triplicate, read-out: ID50 (L1210)
Method: as §1
(§3) 3'-Amino-2',3'-dideoxycytidine was also screened against S-180 neoplastic cells in vitro. The ID50 values were estimated from dose-response curves compiled from at least two independent experiments and represent the drug concentration required to inhibit replication of L1210 or S-180 neoplastic cells by 50%.
(§4) ID50 values were determined from plots of mean cell counts after 72
(§5) hours. Assays were carried out in triplicate with appropriate controls.

[6] = test system: L1210 leukemia; test: L1210 leukemia in CDF1 mice, survival time (T/C); format: in vivo, mouse (CDF1 female mice); settings: 160 mg/kg i.p. twice a day for 3 days, starting 24 hours post inoculation of 1×10^5 L1210 cells
Method: Transplantation of L1210 ascites cells was carried out by withdrawing peritoneal fluid from donor CDF1 mice bearing 7-day growths. The suspension was centrifuged for 2 minutes (1600 g), the supernatant peritoneal fluid was decanted, and a 10-fold dilution with isotonic saline was made. The cell number was determined with a Coulter particle counter and the cell population was adjusted to 10^6 cells/mL. One-tenth mL of the resulting cell suspension (containing approximately 10^5 cells) was injected intraperitoneally into each animal. The drug was administered by intraperitoneal injection, beginning 24 hours after tumor implantation,twice daily for 3 consecutive days. The test compound was injected as a solution in isotonic saline. The drug was administered intraperitoneally in a volume of 0.25 mL. […] Mice were weighed during the course of the experiments, and the percentage change in body weight from onset to termination of therapy was used as an indication of drug toxicity. Determination of the sensitivity of ascitic neoplasms to this agent were based on the prolongation of survival time afforded by the drug treatments. The median survival time and the ratio of survival time for treated (T)/control (C) was calculated.
3'-Amino-2',3'-dideoxycytidine was screened against CDF1 female mice bearing L1210 leukemia according to the above protocol. Three groups of mice with 4 mice in each group were inoculated with 1×10^5 L1210 murine leukemia cells. Starting 24 hours post inoculation, the first group of mice was injected with saline as the vehicle control, the second group with 160 mg/kg of the test compound in saline twice a day, for 3 days. All control mice died by day 9. In the group treated with the test compound, one mouse died at day 21, the second at day 24, the third at day 29 and the last one at day 31, yielding a T/C×100 value of 283.

[7] = test system: S-180 cells; test: Inhibition of replication of S-180 cells in vitro; format: cell-based; settings: Mus musculus, mean cell counts after 72 hours, triplicate, read-out: ID50 (S-180)
Method: as §1, §3, §4, §5

[8] = 4 mice, all controls died by day 9

Structure (SMILES)	prevention of the cytotoxicity of the novel compound against S-180 cells [1] [%]	prevention of the cytotoxicity of the novel compound against L1210 cells ([2]; 25 μM 2'-deoxycytidine added to 5 μM of the novel compound) [%]	prevention of the cytotoxicity of the novel compound against L1210 cells ([2]; 100 μM 2'-deoxycytidine added to 5 μM of the novel compound) [%]	preventive effect on the cytotoxicity of the novel compound against L1210 cells ([2]; dose dependence, in words)	prevention of the cytotoxicity of the novel compound [3]	solubility [4] [mg/mL]	IC50 [5] [nM]	T/C×100 (survival time treated/control) [6]	day of death, first mouse [6, 8] [days]	day of death, last mouse [6, 8] [days]	day of death, second mouse [6, 8] [days]	day of death, third mouse [6, 8] [days]	IC50 [7] [nM]
Nc1ccn([C@H]2C[C@H](O)[C@@H](CO)O2)c(=O)n1 [2'-deoxycytidine]	27	35	100	dose dependent	uniquely prevented								
Nc1ccn([C@H]2C[C@H](N)[C@@H](CO)O2)c(=O)n1 [3'-amino-2',3'-dideoxycytidine, 3'-Amino-2',3'-dideoxycytidine]						~500 (≈ 2210 mM)	700	283	21	31	24	29	4000

Source: US4604382A, “3'-amino-2',3'-dideoxycytidine and the pharmacologically acceptable salts thereof” (Research Corporation, priority 1983, dated 1986)
